≈ marks a conversion by molar mass, not a printed value. Some results are limits rather than exact numbers.

We go through two molecules from patent US4990613A, “(1R,5S,6S)-2-[(6,7-dih ydro-5H-pyrazolo[1,2-a][1,2,4]triazolium-6-yl)]thio-6-[R-1-hydroxyethyl]- 1-methyl-carbapenem-3-carboxylate and intermediate therefor” (Lederle (Japan), Ltd., priority 1987, dated 1991).

The test system of assay [1] is Enterobacter aerougenes ATCC13048. Description: Antibacterial test, agar plate dilution method. Conditions: Enterobacter, ATCC13048, 18 h.
The subject of assay [2] is Escherichia coli NIHJ JC-2. Briefly: Antibacterial test, agar plate dilution method. Conditions: Escherichia coli, NIHJJC2, 18 h.
Assay [3] concerns Staphylococcus aureus MS352. Description: Antibacterial test, agar plate dilution method. Particulars: Staphylococcus aureus, MS352, 18 h.
For assay [4], the system named is Staphylococcus aureus FDA 209P JC-1. Description: Antibacterial test, agar plate dilution method. Conditions: Staphylococcus aureus, FDA209P, 18 h.
Assay [5] relates to Staphylococcus aureus Terajima. Description: Antibacterial test, agar plate dilution method. Conditions: Staphylococcus aureus, 18 h.
The test system of assay [6] is Micrococcus luteus ATCC9341. Description: Antibacterial test, agar plate dilution method. Conditions: Micrococcus luteus, ATCC9341, 18 h.
In assay [7] the test system is Pseudomonas aeruginosa GN 10367. Description: Antibacterial activity against clinically isolated β-lactamase producing strains. The assay is classed as cell-based. Particulars: Pseudomonas aeruginosa, GN10367. On the procedure:
(§1) A solution of a cephalosporinase producing strain stored by Episome Research Institute, which was prepared by incubating the strain in a sensitivity test broth (STB; product of Nissui K.K.) for 18 hours, was diluted with a fresh STB solution to contain 10^5 cells per milliliter and the diluted solution was then inoculated as spots with a microplanter on a sensitivity disk agar-N (SDA; product of Nissui K.K.) containing a test compound. The disk agar was then incubated for 18 to 20 hours. A minimum inhibitory concentration was determined as a minimum concentration in which the test microorganism had no longer grown after a 18 to 20 hour incubation.

Assay [8] concerns Escherichia coli GN 5482. The assay is described as above. The assay is classed as cell-based. Particulars: Escherichia coli, GN5482; cephalosporinase producing strain, 18 to 20 hours; read-out: MIC. Here is the method: as §1
The test system of assay [9] is Providencia rettgeri GN 4762. The description is as above. Conditions: Providencia rettgeri, GN4762; cephalosporinase producing strain, 18 to 20 hours; read-out: MIC. The assay is classed as cell-based. On the procedure:
as §1

Assay [10] deals with Providencia rettgeri IFO 3850. Briefly: Antibacterial test, agar plate dilution method. Particulars: Providencia rettgeri, IFO3850, 18 h.
For assay [11], the system named is Salmonella enteritidis G14. Description: Antibacterial test, agar plate dilution method. Conditions: Salmonella enterica, ENTERITIDIS, 18 h.
For assay [12], the system named is P. aeruginosa resistant strains. Briefly: Sensitivity test against clinical isolates, P. aeruginosa resistant strains. In kind it is cell-based. Conditions: 54 resistant strains. On the procedure: It is noted here that the 54 strains have been chosen because there have been the strains in duplicate with the agents. ______________________________________ Ceftazidime (CAZ) (25 to 100 μg/ml) 21 strains Cefsulodine (CFS) (25 to >100 μg/ml) 23 strains Piperacilin (PIPC) (25 to >100 μg/ml) 15 strains Gentamycin (GM) (25 to >100 μg/ml) 21 strains Amikacin (AMK) (25 to >100 μg/ml) 26 strains Ofloxacin (OFLX) (25 to >100 μg/ml) 4 strains ______________________________________
A minimum inhibitory concentration (MIC) was determined in substantially the same manner as the test procedures II above using the 54 strains of P. aeruginosa having an anti-Pseudomonas resistance.

For assay [13], the system named is Proteus vulgaris HX-19. Description: Antibacterial test, agar plate dilution method. Particulars: Proteus vulgaris, HX19, 18 h.
Assay [14] relates to C. freundii resistant strains. Briefly: Sensitivity test against clinical isolates, C. freundii resistant strains. The assay is classed as cell-based. Particulars: CFIX/CTX resistant strains. Here is the method:
Cefixime (CFIX) (50 to >100 μg/ml)
Cefotaxime (CTX) (50 to >100 μg/ml)
The tests were carried out in the same manner as described above Test 1.

The test system of assay [15] is Swine Kidney Dehydropeptidase-I (DHP-I). Briefly: Hydrolysis activity against DHP-I enzyme substrate by late assay. The assay is classed as in vitro ADME. Conditions: final substrate concentration 100 μM, 10 minutes, pH 7.1. On the procedure:
The swine kidney (8 kg) was homogenized and an enzyme protein was allowed to precipitate. After a connective lipid was removed with acetone, the resultant material was made soluble by treatment with butanol and purified in the order by the ammonium sulfate fraction method, thereby producing DPH-I enzyme from a 75% ammonium sulfate fraction.
The DHP-I enzyme was then adjusted to give an enzyme concentration of 25 mg/10 ml (phosphate buffer, pH 7.1), and divided into 1 ml portions. The portions were frozen and stored at -40° C. or less until use.
As control compounds were employed glycyl dehydrophenylalanine (Gl-dh-Ph) and imipenem, and they were adjusted in situ each to give the concentration of 177 μM with the same sodium phosphate buffer solution.
To 1.2 ml of a 50 mM sodium phosphate buffer solution (substrate) containing 177 μM of each of Gh-dh-Ph and imipenem as the control compounds was added 0.2 ml of the DHP-I enzyme solution (25 mg/10 ml) prepared above in the final substrate concentration of 100 μM. The solution was then incubated at […] for 10 minutes. An initial velocity of hydrolysis of the substrate was measured from a decrease in absorbency at a particular λmax of each of the substrates.
A blank test was conducted in substantially the same manner as above by adding 0.2 ml of the sodium phosphate buffer solution (pH 7.1) to 1.2 ml of the above substrate.

Assay [16] deals with Proteus vulgaris OX-19. Briefly: Antibacterial test, agar plate dilution method. Conditions: Proteus vulgaris, OX19, 18 h.
The test system of assay [17] is Enterobacter cloacae GN 7467. Description: Antibacterial activity against clinically isolated β-lactamase producing strains. The assay is classed as cell-based. Particulars: Enterobacter cloacae, GN7467; cephalosporinase producing strain, 18 to 20 hours; read-out: MIC. Here is the method: as §1
Assay [18] relates to Proteus vulgaris GN 76. The assay is described as above. In kind it is cell-based. Particulars: Proteus vulgaris, GN76. Here is the method:
as §1

Assay [19] has as its system Enterobacter cloacae GN 7471. Described as above. The assay is classed as cell-based. Particulars: Enterobacter cloacae, GN7471; cephalosporinase producing strain, 18 to 20 hours; read-out: MIC. Here is the method: as §1
Assay [20] has as its system Pseudomonas aeruginosa GN 918. The assay is described as above. In kind it is cell-based. Conditions: Pseudomonas aeruginosa, GN918; cephalosporinase producing strain, 18 to 20 hours; read-out: MIC. Here is the method: as §1
Assay [21] concerns Proteus mirabilis IFO3849. Description: Antibacterial test, agar plate dilution method. Conditions: Proteus mirabilis, IFO3849, 18 h.

As usually defined, the MIC is the lowest concentration found to suppress growth. In the case of `Cc1nnc(SCC2=C(C(=O)O)N3C(=O)[C@@H](NC(=O)Cn4cnnn4)[C@H]3SC2)s1` [CEZ], the MIC in [1] is over 100 µg/mL; in assay [2] it was 0.78 µg/mL (≈ 1.72 µM); in [3], 0.1 µg/mL (≈ 0.22 µM); in assay [4] it was 0.2 µg/mL (≈ 0.44 µM); in assay [5], 0.05 µg/mL (≈ 0.11 µM); in assay [6], 0.39 µg/mL (≈ 0.858 µM). For the same molecule, the MIC was found to be 3.13 µg/mL (≈ 6.89 µM) in assay [7]; 0.78 µg/mL (≈ 1.72 µM) in assay [8]; 0.78 µg/mL (≈ 1.72 µM) in assay [9]; 12.5 µg/mL (≈ 27.5 µM) in [10]; 0.78 µg/mL (≈ 1.72 µM) in assay [11].

Consider `C[C@@H](O)[C@H]1C(=O)N2C(C(=O)O)=C(SCCN=CN)C[C@H]12` [Imipenem], for which the “test microorganisms whose growth is inhibited” value is reported as “all the test microorganism” in assay [12] (concentration of 12.5 μg/ml), “approximately 98%” in [12] (concentration of […]), “approximately 90%” in assay [14] (concentration of 0.78 μg/ml) and “all the test microorganisms” in assay [14] (concentration of 1.56 μg/ml). Further, the MIC in [1] was 0.2 µg/mL (≈ 0.668 µM); in assay [13], 0.78 µg/mL (≈ 2.61 µM); in assay [2], 0.1 µg/mL (≈ 0.334 µM); in assay [3], 0.013 µg/mL (≈ 0.0434 µM); in [4], 0.025 µg/mL (≈ 0.0835 µM); in assay [5], under 0.006 µg/mL. Besides, the MIC in assay [6] stood at 0.025 µg/mL (≈ 0.0835 µM); in [16], 0.78 µg/mL (≈ 2.61 µM); in [17], 0.78 µg/mL (≈ 2.61 µM); in [18], 3.13 µg/mL (≈ 10.5 µM); in assay [19], 0.2 µg/mL (≈ 0.668 µM); in assay [7], 1.56 µg/mL (≈ 5.21 µM). Further, the MIC in assay [8] is 0.1 µg/mL (≈ 0.334 µM); in assay [9], 0.39 µg/mL (≈ 1.3 µM); in assay [20] it was 0.78 µg/mL (≈ 2.61 µM); in assay [10], 0.78 µg/mL (≈ 2.61 µM); in assay [11] it was 0.78 µg/mL (≈ 2.61 µM); in assay [21], 6.25 µg/mL (≈ 20.9 µM). Moreover, the “initial velocity of hydrolysis against DHP-I” value in assay [15] was found to be 0.56 µM/min.
